In patent US20260144769A1, “4-PHENYLBUTYRATE RESTORED GABA UPTAKE AND REDUCED SEIZURES IN SLC6A1 VARIANT-MEDIATED DISORDERS” (Vanderbilt University, priority 2022, published 2026):

What was measured:
GAT-1 (SLC6A1^+/S295L) = assay: 3H GABA uptake, cortical astrocytes from SLC6A1^+/S295L knockin mice; format: cell-based, mouse; details: S295L heterozygous astrocytes; PBA 2 mM, 24 hr; SNAP5114 30 μM
Protocol: Mouse cortical astrocytes or neurons were cultured from postnatal pus at day 0-3 days old for astrocytes and day 0 for neurons from the SLC6A1^+/A288V or SLC6A1^+/S295L mouse line. FIGS. 7A-B show astrocytes under passage 2 were grown in […] dishes and passaged into 35-mm^2 dishes before GABA uptake assay.
FIGS. 7C-D show neurons directly cultured in the 35-mm^2 dishes and GABA uptake was evaluated between day 15-17 days after culture. CI-966 (50 μM) and NNC711 (35 μM) was applied 30 min before preincubation and removed during preincubation. GAT-3 inhibitor SNAP5114 (30 μM) was applied during GABA uptake to make sure only GAT-1 activity was measured. The wildtype astrocytes (FIGS. 7A-B) or cortical neurons (FIGS. 7C-D) of either SLC6A1^+/A288V or SLC6A1^+/S295L were taken as 1. The cultures derived from each mutant mouse was compared to the culture from its own wildtype littermates. […] The wildtype data were pooled from two mouse lines. […] The graph represents the relative GABA uptake level normalized to cells of its own genotype treated with DMSO. CI-966 (50 μM) or NNC-711 (35 μM) was applied 30 min before preincubation and removed during preincubation. Two-way analysis of variance followed by Bonferroni multiple comparison test was used. Values were expressed as mean±S.E.M. In FIG. 7A and FIG. 7C, ***p<0.001 vs. wt; § § § P<0.001 S295L vs. A288V. […]

SLC6A1 gene expression = assay: RT-qPCR of SLC6A1 gene expression, mouse whole-brain tissue; format: in vivo; details: wild-type and SLC6A1^+/S295L mice; PBA for 7 days; whole-brain RNA
Excerpt: FIGS. 14A-B show RT-qPCR data from a cohort of nine wild-type mice (FIG. 14A) and seven SLC6A1^+/S295L mice (FIG. 14B). […] Total RNA was extracted from mouse whole-brain tissue.

O=C(O)CCCc1ccccc1 [PBA, 4-phenylbutyric acid]
GABA uptake activity normalized to its own DMSO condition (GAT-1 (SLC6A1^+/S295L)): 1.54±0.13
SLC6A1 gene expression, treated vs. untreated mice (SLC6A1 gene expression): no significant difference
